Test results: ChEMBL document CHEMBL3508140 (2016)

Experiments:
[1] = Recovery of epirubicin following intraperitoneal epirubicin at 4 mg.Kg-1 dose in mouse; type: ADME, organism-based, CD-1, Plasma; conditions: in vivo, ip
[2] = Recovery of epirubicin following intraperitoneal epirubicin at 4 mg.Kg-1 dose in hamster; type: ADME, organism-based, Cricetulus griseus, Plasma; conditions: chinese hamster, in vivo, ip
[3] = Recovery of epirubicin following intravenous epirubicin at 1.5 mg.Kg-1 dose in man; type: ADME, organism-based, Plasma; conditions: human, in vivo
[4] = Increase in serum triglycerides level following reference intravenous epirubicin at 1 mg.Kg-1 per week in rat; type: toxicity, organism-based, SD; conditions: in vivo
[5] = Incidence of leukocyturia following reference intravenous epirubicin at 1 mg.Kg-1 per week in rat; type: toxicity, organism-based, SD; conditions: in vivo
[6] = Decrease in albumin due to persistent proteinuria following reference intravenous epirubicin at 1 mg.Kg-1 per week in rat; type: toxicity, organism-based, SD, Serum; conditions: in vivo
[7] = Urinary excretion of epirubicin following epirubicin at 50 mg.m-2 dose in cancer patients; type: ADME, organism-based; conditions: human, urine, at 50 mg/m2, read-out: Compound recovery
[8] = Cumulative urinary excretion of epirubicin and its metabolites following epirubicin at 50 mg.m-2 dose in cancer patients; type: ADME, organism-based, Urine; conditions: human, in vivo; at 50 mg/m2
[9] = Cumulative urinary excretion of epirubicin and its metabolites following epirubicin at 60 mg.m-2 dose in cancer patients; type: ADME, organism-based, Urine; conditions: human, in vivo; at 60 mg/m2
[10] = Cumulative biliary excretion of epirubicin and its metabolites following epirubicin at 50 mg.m-2 dose in cancer patients; type: ADME, organism-based, Bile; conditions: human, in vivo; at 50 mg/m2
[11] = Renal clearance of epirubicin following epirubicin at 60 mg.m-2 dose in cancer patients; type: ADME, organism-based, Kidney; conditions: human, in vivo, iv, read-out: Renal clearance (converted)
[12] = Elimination of epirubicin following epirubicin at 60 mg.m-2 dose in cancer patients; type: ADME, organism-based, Plasma; conditions: human, in vivo, iv
[13] = Half-life of terminal elimination phase of epirubicin following intravenous epirubicin at 30-90 mg.m-2 dose in cancer patients; type: ADME, organism-based; conditions: human, plasma
[14] = Plasma clearance of epirubicin following intravenous epirubicin at 30-90 mg.m-2 dose in cancer patients; type: ADME, organism-based; conditions: human, in vivo
[15] = Half-life of terminal elimination phase of epirubicin following intravenous epirubicin at 60 mg.m-2 dose in cancer patients; type: ADME, organism-based; conditions: human, plasma
[16] = Plasma clearance of epirubicin following intravenous epirubicin at 60 mg.m-2 dose in cancer patients; type: ADME, organism-based; conditions: human, in vivo
[17] = Intermediate phase half-life of epirubicin following intravenous epirubicin at 20 mg.m-2 dose in cancer patients; type: ADME, organism-based, Plasma; conditions: human, in vivo
[18] = Plasma clearance of epirubicin following intravenous epirubicin at 20 mg.m-2 dose in cancer patients; type: ADME, organism-based; conditions: human, in vivo
[19] = Intermediate phase half-life of epirubicin following intravenous epirubicin at 75 mg.m-2 dose in cancer patients; type: ADME, organism-based, Plasma; conditions: human, in vivo
[20] = Half-life of terminal elimination phase of epirubicin following intravenous epirubicin at 75 mg.m-2 dose in cancer patients; type: ADME, organism-based; conditions: human, plasma
[21] = Plasma clearance of epirubicin following intravenous epirubicin at 75 mg.m-2 dose in cancer patients; type: ADME, organism-based; conditions: human, in vivo
[22] = Volume of distribution as steady state of epirubicin following intravenous epirubicin at 75 mg.m-2 dose in cancer patients; type: ADME, organism-based, Plasma; conditions: human, in vivo
[23] = Half-life of terminal elimination phase of epirubicin following intravenous epirubicin at 40-135 mg.m-2 dose in cancer patients; type: ADME, organism-based; conditions: human, plasma
[24] = Plasma clearance of epirubicin following intravenous epirubicin at 40-135 mg.m-2 dose in cancer patients; type: ADME, organism-based; conditions: human, in vivo
[25] = Plasma clearance of epirubicin following intravenous epirubicin at 70 mg.m-2 dose in cancer patients; type: ADME, organism-based; conditions: human, in vivo
[26] = Volume of distribution as steady state of epirubicin following intravenous epirubicin at 70 mg.m-2 dose in cancer patients; type: ADME, organism-based, Plasma; conditions: human, in vivo
[27] = Plasma clearance of epirubicin following intravenous epirubicin at 40-60 mg.m-2 dose in cancer patients; type: ADME, organism-based; conditions: human, in vivo
[28] = Half-life of terminal elimination phase of epirubicin following intravenous epirubicin at 50 mg.m-2 dose in cancer patients; type: ADME, organism-based; conditions: human, plasma
[29] = Plasma clearance of epirubicin following intravenous epirubicin at 50 mg.m-2 dose in cancer patients; type: ADME, organism-based; conditions: human, in vivo
[30] = Initial phase half-life of epirubicin following intravenous epirubicin at 90-150 mg.m-2 dose in cancer patients; type: ADME, organism-based, Plasma; conditions: human, in vivo
[31] = Half-life of terminal elimination phase of epirubicin following intravenous epirubicin at 90-150 mg.m-2 dose in cancer patients; type: ADME, organism-based; conditions: human, plasma
[32] = Plasma clearance of epirubicin following intravenous epirubicin at 90-150 mg.m-2 dose in cancer patients; type: ADME, organism-based; conditions: human, in vivo
[33] = Initial phase half-life of epirubicin following intravenous epirubicin at 25-35 mg.m-2 dose in cancer patients; type: ADME, organism-based, Plasma; conditions: human, in vivo
[34] = Volume of distribution as steady state of epirubicin following intravenous epirubicin at 25-35 mg.m-2 dose in cancer patients; type: ADME, organism-based, Plasma; conditions: human, in vivo
[35] = Intermediate phase half-life of epirubicin following intravenous epirubicin at 75-90 mg.m-2 dose in cancer patients; type: ADME, organism-based, Plasma; conditions: human, in vivo
[36] = Plasma clearance of epirubicin following intravenous epirubicin at 75-90 mg.m-2 dose in cancer patients; type: ADME, organism-based; conditions: human, in vivo
[37] = Detection of epirubicin in plasma following single intravenous epirubicin at 10 mg.Kg-1 dose in female mouse bearing colon tumor; type: ADME, organism-based, BALB/c; conditions: in vivo
[38] = Detection of epirubicin in tumor following single intravenous epirubicin at 10 mg.Kg-1 dose in female mouse bearing colon tumor; type: ADME, organism-based, BALB/c, Neoplasm; conditions: in vivo
[39] = AUC values (0-48 h) of epirubicin in plasma following single intravenous epirubicin at 10 mg.Kg-1 dose in female mouse bearing colon tumor; type: ADME, organism-based, BALB/c; conditions: in vivo
[40] = (§1) Urinary elimination of 4'-epiadriamycin following intravenous bolus 4'-epiadriamycin at 10 mg.Kg-1 dose in rat; type: ADME, organism-based; conditions: SD, urine, read-out: Compound recovery
[41] = as §1; type: ADME, organism-based; conditions: SD, urine, read-out: Compound recovery; remark: listed apart in the source
[42] = Plasma clearance of epirubicin following intravenous epirubicin at 1 mg.Kg-1 dose in rabbit; type: ADME, organism-based, Oryctolagus cuniculus; conditions: both, New Zealand White
[43] = Volume of distribution of epirubicin following intravenous epirubicin at 3 mg.Kg-1 dose in rabbit; type: ADME, organism-based, Oryctolagus cuniculus; conditions: both, New Zealand White, plasma
[44] = (§2) Terminal half-life of epirubicinol following intravenous epirubicin at 3 mg.Kg-1 dose in rabbit; type: ADME, organism-based, Oryctolagus cuniculus, New Zealand White, Plasma; conditions: in vivo
[45] = Terminal half-life of epirubicinol following intravenous epirubicin at 1 mg.Kg-1 dose in rabbit; type: ADME, organism-based, Oryctolagus cuniculus, New Zealand White, Plasma; conditions: in vivo
[46] = as §2; type: ADME, organism-based, Oryctolagus cuniculus, New Zealand White, Plasma; conditions: in vivo; remark: listed apart in the source
[47] = Plasma clearance of epirubicin following intravenous epirubicin emulsion at 1 mg.Kg-1 dose in rabbit; type: ADME, organism-based, Oryctolagus cuniculus, Blood; conditions: both, New Zealand White
[48] = Mean residence time (MRT) of epirubicin following intravenous epirubicin emulsion at 1 mg.Kg-1 dose in rabbit; type: ADME, organism-based, Oryctolagus cuniculus; conditions: both, New Zealand White, blood, read-out: Mean residence time (converted)
[49] = Plasma clearance of epirubicin following intrahepatic epirubicin solution at 1 mg.Kg-1 dose in rabbit; type: ADME, organism-based, Oryctolagus cuniculus, Blood; conditions: both, New Zealand White
[50] = Volume of distribution of epirubicin following intrahepatic epirubicin emulsion at 1 mg.Kg-1 dose in rabbit; type: ADME, organism-based, Oryctolagus cuniculus; conditions: both, New Zealand White, blood
[51] = Terminal half-life of epirubicin following intrahepatic epirubicin solution at 1 mg.Kg-1 dose in rabbit; type: ADME, organism-based, Oryctolagus cuniculus; conditions: both, New Zealand White, blood
[52] = Mean AUC (8-48 h) of epirubicin following intravenous epirubicin at 1 mg.Kg-1 dose administered approximately 25 minute prior to epirubicin once weekly for four weeks in dog; type: ADME, organism-based, Canis lupus familiaris; conditions: Beagle, plasma

SMILES: COc1cccc2c1C(=O)c1c(O)c3c(c(O)c1C2=O)C[C@@](O)(C(=O)CO)C[C@@H]3O[C@H]1C[C@H](N)[C@@H](O)[C@H](C)O1.Cl [EPIRUBICIN HYDROCHLORIDE]
- Compound recovery [1]: 49 10^-9M
- Compound recovery [2]: 83 10^-9M
- Compound recovery [3]: 46 10^-9M
- TRIG_CHANGE [4]: OUTCOME = Increased
- Incidence [5]: OUTCOME = Observed
- ALB_CHANGE [6]: OUTCOME = Decreased
- dose excreted at 48 h [7]: 6.2%
- dose excreted at 96 h [7]: 9.6%
- Radiolabel recovery [8]: 10.5%
- Radiolabel recovery [9]: 11.3%
- Radiolabel recovery [10]: 34.9%
- CL renal [11]: 71.7 mL/min
- Elimination [12]: OUTCOME = Observed
- half-life [13]: 39.4 h
- CLp [14]: 48 L.h-1.m-2
- half-life [15]: 31.4 h
- CLp [16]: 43.1 L.h-1.m-2
- t1/2 [17]: 0.89 h
- CLp [18]: 71.5 L.h-1.m-2
- t1/2 [19]: 1.7 h
- half-life [20]: 44.8 h
- CLp [21]: 29 L.h-1.m-2
- Vss [22]: 2964 L.m-2
- half-life [23]: 20.6 h
- CLp [24]: 50.9 L.h-1.m-2
- CLp [25]: 84.2 L.h-1.m-2
- Vss [26]: 2332 L.m-2
- CLp [27]: 50.1 L.h-1.m-2
- half-life [28]: 18.3 h
- CLp [29]: 37 L.h-1.m-2
- t1/2 [30]: 0.167 h
- half-life [31]: 42 h
- CLp [32]: 48 L.h-1.m-2
- t1/2 [33]: 2.53 min
- Vss [34]: 925 L.m-2
- t1/2 [35]: 2.6 h
- CLp [36]: 94.9 L.h-1.m-2
- Compound recovery [37]: OUTCOME = Observed
- Compound recovery [38]: OUTCOME = Observed
- AUC [39]: 179 nmol·min/mL
- dose excreted [40]: 2.43%
- dose excreted [41]: 4.83%
- clearance [42]: 196 mL/min
- Vd [43]: 587 L/kg
- t1/2 [44]: 1.66 h
- t1/2 [45]: 13.97 h
- t1/2 [46]: 33.94 h
- clearance [47]: 1560 mL/min
- MRT [48]: 0.835 h
- CL/F [49]: 2700 mL/min
- Vd [50]: 137 L/kg
- half-life [51]: 1.14 h
- AUC [52]: 233 ng·h/mL
